Test results taken from patent US7256199B1, “Pyrimidone derivatives” (Mitsubishi Chemical Corporation, priority 1998, dated 2007).
Counter-ions that a name gives are not always drawn.

Biological target: T1, bovine cerebral TPK1 (Bos taurus, UniProt A0A3Q1MT31)
T1 construct: Against P-GS1 Phosphorylation by Bovine Cerebral TPK1; from tissue; host or cells: bovine cerebrum (brain)
Assay: Inhibitory activity against P-GS1 phosphorylation by bovine cerebral TPK1
Format: biochemical
Conditions: 41.7 μM [γ-32P] ATP, 25° C., 2 hours, pH 6.5
Experimental: Test Example: Inhibitory Activity of the Medicament of the Present Invention Against P-GS1 Phosphorylation by Bovine Cerebral TPK1
A mixture containing 100 mM MES-sodium hydroxide (pH 6.5), 1 mM magnesium acetate, 0.5 mM EGTA, 5 mM β-mercaptoethanol, 0.02% Tween 20, 10% glycerol, 12 μg/ml P-GS1, 41.7 μM [γ-^32P] ATP (68 kBq/ml), bovine cerebral TPK1 and a compound shown in Table (a final mixture contained 1.7% DMSO deriving from a solution of a test compound prepared in the presence of 10% DMSO) was used as a reaction system. The phosphorylation was started by adding ATP, and the reaction was conducted at 25° C. for 2 hours, and then stopped by adding 21% perchloric acid on ice cooling. The reaction mixture was centrifuged at 12,000 rpm for 5 minutes and adsorbed on P81 paper (Whatmann), and then the paper was washed four times with 75 mM phosphoric acid, three times with water and once with acetone. The paper was dried, and the residual radioactivity was measured using a liquid scintillation counter.

T1 sequence (A0A3Q1MT31 1-419): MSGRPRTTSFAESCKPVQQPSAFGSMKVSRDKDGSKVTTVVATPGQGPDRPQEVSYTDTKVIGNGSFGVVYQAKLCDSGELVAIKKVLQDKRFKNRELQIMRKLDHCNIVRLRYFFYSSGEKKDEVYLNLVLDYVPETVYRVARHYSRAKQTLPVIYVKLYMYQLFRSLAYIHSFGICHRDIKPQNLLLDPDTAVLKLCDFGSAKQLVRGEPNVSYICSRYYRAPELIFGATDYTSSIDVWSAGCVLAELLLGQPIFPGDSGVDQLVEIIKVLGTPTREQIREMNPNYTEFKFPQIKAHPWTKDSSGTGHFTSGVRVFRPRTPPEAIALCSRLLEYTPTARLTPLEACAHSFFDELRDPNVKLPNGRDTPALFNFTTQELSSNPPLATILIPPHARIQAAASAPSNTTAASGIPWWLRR

Compound | IC50 [nM]
2-(butoxyphenylamino)-6-(4-pyridyl)pyrimidin-4-one [Example 90] | 6300
2-(ethylphenylamino)-6-(4-pyridyl)pyrimidin-4-one [Example 89] | 2300
O=c1cc(-c2ccncc2)nc(-c2cccnc2)[nH]1 [Example 1, 2-(3-pyridyl)-6-(4-pyridyl)pyrimidin-4-one] | 2300
Cc1nc(-c2ccncc2)cc(=O)[nH]1 [Example 2, 2-methyl-6-(4-pyridyl)pyrimidin-4-one] | 3000
CC(C)Cc1nc(-c2ccncc2)cc(=O)[nH]1 [Example 7, 2-isobutyl-6-(4-pyridyl)pyrimidin-4-one] | 2400
Cc1ccccc1-c1nc(-c2ccncc2)cc(=O)[nH]1 [Example 14, 6-(4-pyridyl)-2-(2-tolyl)pyrimidin-4-one] | 4000
Cc1cccc(-c2nc(-c3ccncc3)cc(=O)[nH]2)c1 [Example 15, 6-(4-pyridyl)-2-(3-tolyl)pyrimidin-4-one] | 2200
Cc1ccc(-c2nc(-c3ccncc3)cc(=O)[nH]2)cc1 [Example 16, 6-(4-pyridyl)-2-(4-tolyl)pyrimidin-4-one] | 4800
O=c1cc(-c2ccncc2)nc(-c2cccc(Br)c2)[nH]1 [Example 19, 2-(3-bromophenyl)-6-(4-pyridyl)pyrimidin-4-one] | 8700
N#Cc1cccc(-c2nc(-c3ccncc3)cc(=O)[nH]2)c1 [Example 22, 2-(3-cyanophenyl)-6-(4-pyridyl)pyrimidin-4-one] | 6200
O=c1cc(-c2ccncc2)nc(-c2ccc([N+](=O)[O-])cc2)[nH]1 [Example 24, 2-(4-nitrophenyl)-6-(4-pyridyl)pyrimidin-4-one] | 5300
CN(C)Cc1cccc(-c2nc(-c3ccncc3)cc(=O)[nH]2)c1 [Example 27, 2-(3-(dimethylaminomethyl)phenyl)-6-(4-pyridyl)pyrimidin-4-one dihydrochloride] | 3300
Cc1ccc(Cc2nc(-c3ccncc3)cc(=O)[nH]2)cc1 [Example 31, 2-(4-methylbenzyl)-6-(4-pyridyl)pyrimidin-4-one] | 2900
O=c1cc(-c2ccncc2)nc(Cc2ccc(Cl)cc2)[nH]1 [Example 33, 2-(4-chlorobenzyl)-6-(4-pyridyl)pyrimidin-4-one] | 5500
O=c1cc(-c2ccncc2)nc(CCc2ccccc2)[nH]1 [Example 35, 2-(2-phenylethyl)-6-(4-pyridyl)pyrimidin-4-one] | 8900
O=c1cc(-c2ccncc2)nc(-c2ccccn2)[nH]1 [Example 37, 2-(2-pyridyl)-6-(4-pyridyl)pyrimidin-4-one] | 3800
O=c1cc(-c2ccncc2)nc(Cc2cccs2)[nH]1 [Example 42, 6-(4-pyridyl)-2-(2-thienylmethyl)pyrimidin-4-one] | 7600
Nc1nc(-c2ccncc2)cc(=O)[nH]1 [Example 43, 2-amino-6-(4-pyridyl)pyrimidin-4-one] | 5700
CN(C)c1nc(-c2ccncc2)cc(=O)[nH]1 [Example 44, 2-dimethylamino-6-(4-pyridyl)pyrimidin-4-one] | 3700
O=c1cc(-c2ccncc2)nc(N2CCCCC2)[nH]1 [Example 69, 2-(1-piperidino)-6-(4-pyridyl)pyrimidin-4-one] | 2500
CN(Cc1ccccc1)c1nc(-c2ccncc2)cc(=O)[nH]1 [Example 79, 2-(N-benzyl-N-methylamino)-6-(4-pyridyl)pyrimidin-4-one] | 2800
O=c1cc(-c2ccncc2)nc(N2CCOCC2)[nH]1 [Example 82, 2-(4-morpholinyl)-6-(4-pyridyl)pyrimidin-4-one] | 4300
O=c1cc(-c2ccncc2)nc(C2CCCCC2)[nH]1 [Example 83, 2-cyclohexyl-6-(4-pyridyl)pyrimidin-4-one] | 2800
O=c1cc(-c2ccncc2)nc(NCCCO)[nH]1 [Example 86, 2-(3-hydroxypropylamino)-6-(4-pyridyl)pyrimidin-4-one] | 10000
O=c1cc(-c2ccncc2)nc(N2CCCC2)[nH]1 [Example 87, 2-(1-pyrrolidinyl)-6-(4-pyridyl)pyrimidin-4-one] | 2600

Stronger by IC50, values ahead:

IC50 [nM] | Compound
1600 | 2-(bromophenylamino)-6-(4-pyridyl)pyrimidin-4-one [Example 91]
2100 | CC(C)c1nc(-c2ccncc2)cc(=O)[nH]1 [Example 5, 2-isopropyl-6-(4-pyridyl)pyrimidin-4-one]
1300 | CCCCc1nc(-c2ccncc2)cc(=O)[nH]1 [Example 6, 2-butyl-6-(4-pyridyl)pyrimidin-4-one]
1800 | O=c1cc(-c2ccncc2)nc(-c2ccccc2)[nH]1 [Example 12, 2-phenyl-6-(4-pyridyl)pyrimidin-4-one]
1300 | O=c1cc(-c2ccncc2)nc(Cc2ccccc2)[nH]1 [Example 28, 2-benzyl-6-(4-pyridyl)pyrimidin-4-one]
1400 | Cc1ccccc1Cc1nc(-c2ccncc2)cc(=O)[nH]1 [Example 29, 2-(2-methylbenzyl)-6-(4-pyridyl)pyrimidin-4-one]
500 | O=c1cc(-c2ccncc2)nc(CCCc2ccccc2)[nH]1 [Example 36, 2-(3-phenylpropyl)-6-(4-pyridyl)pyrimidin-4-one]
1800 | O=c1cc(-c2ccncc2)nc(-c2ccncc2)[nH]1 [Example 38, 2,6-di(4-pyridyl)pyrimidin-4-one]
1300 | O=c1cc(-c2ccncc2)nc(Cc2ccccc2Cl)[nH]1 [Example 68, 2-(2-chlorobenzyl)-6-(4-pyridyl)pyrimidin-4-one]
1100 | CCN(CC)c1nc(-c2ccncc2)cc(=O)[nH]1 [Example 71, 2-(diethylamino)-6-(4-pyridyl)pyrimidin-4-one]
1100 | O=c1cc(-c2ccncc2)nc(NCc2ccccc2)[nH]1 [Example 80, 2-benzylamino-6-(4-pyridyl)pyrimidin-4-one]
1100 | CC(C)CN(C)c1nc(-c2ccncc2)cc(=O)[nH]1 [Example 84, 2-(N-isobutyl-N-methylamino)-6-(4-pyridyl)pyrimidin-4-one]
960 | CCCN(CCC)c1nc(-c2ccncc2)cc(=O)[nH]1 [Example 85, 2-dipropylamino-6-(4-pyridyl)pyrimidin-4-one]
1400 | O=c1cc(-c2ccncc2)nc(NCC2CCCCC2)[nH]1 [Example 88, 2-cyclohexylmethylamino-6-(4-pyridyl)pyrimidin-4-one]
1600 | O=c1cc(-c2ccncc2)nc(Nc2ccccc2)[nH]1 [Example 92, 2-phenylamino-6-(4-pyridyl)pyrimidin-4-one]
1800 | COc1cccc(Nc2nc(-c3ccncc3)cc(=O)[nH]2)c1 [Example 93, 2-(3-methoxyphenylamino)-6-(4-pyridyl)pyrimidin-4-one]
770 | O=c1cc(-c2ccncc2)nc(Cc2cccc(-c3ccccc3)c2)[nH]1 [Example 96, 2-(3-phenylbenzyl)-6-(4-pyridyl)pyrimidin-4-one]
1700 | O=c1cc(-c2ccncc2)nc(-c2ccc(O)cc2)[nH]1 [Example 97, 2-(4-hydroxyphenyl)-6-(4-pyridyl)pyrimidin-4-one]
